One assay concerns JURKAT. The assay can be described thus: ATP-based luminescence cell viability (CellTiter Glo), drug response score, JURKAT. Conditions: screened individually (Compress: None). (In general: Cellular ATP, detected with luciferase, serves as a proxy for viable cell number.)
In assay [1] the test system is REH. Put plainly: ATP-based luminescence cell viability (CellTiter Glo), drug response score, REH. Also noted: scale not given here. Conditions: for DRS from deconvolution: Sample compression, 5 Pick 3 pools; for drug response score (DRS): screened individually (Compress: None).
In a further assay the test system is CCRF-HSB2. The assay can be described thus: ATP-based luminescence cell viability (CellTiter Glo), drug response score, CCRF-HSB2. From the text: (§1) As part of a screen, a drug could be screened at different concentrations ranging from a lowest concentration to a highest concentration. In such a scenario, multiple data structures may be obtained by the screening platform 210. […] With these multiple data structures, the analysis module 218 can generate a dose-response curve that describes the magnitude of the response of the biological target, as a function of exposure to different concentrations of the drug. Further, the analysis module 218 can calculate a metric that is indicative of the response of the biological target. In the event that the biological target is one of multiple biological targets that are introduced to the pools of drugs, the metric can be used by the screening platform 210 to better understand the relative magnitude of responses. One example of a metric is drug-response score (“DRS”). DRS can be calculated as a continuous function of multiple parameters of the non-linear dose-response curve, including the slope at the half-maximal effective concentration (also called “EC50”) and the top and bottom asymptotes of the dose-response curve. DRS can be calculated as follows: […]
(§2) where y is a continuous function of the variable dose x, a is the maximal response (i.e., the top asymptote of the curve), b is the slope of the curve, c is the IC50 (i.e., half-maximal inhibitory concentration), and d is the minimal response (i.e., the bottom asymptote of the curve). Other examples of metrics include those output by sigmoidal and Hill slide functions that, like DRS, incorporate multiple aspects of the dose-response curve into a continuous function.
(§3) Total cell viability was measured for each cancer cell line using an Adenosine TriPhosphate (“ATP”) assay, and more specifically an ATP-based luminescence assay (i.e., CellTiter Glo). Each cancer drug was screened at multiple concentrations ranging from one nanomolar (nM) to ten micromolar (UM) in order to generate a dose-response curve and calculate a drug response score (“DRS”) for each cancer cell line. The DRS was calculated as a continuous function of multiple parameters of the non-linear dose-response curve, including the slope at the half-maximal effective concentration (also called “EC50”) and the top and bottom asymptotes of the dose-response curve. […] After total cell viability was measured and DRS was calculated, the DRS of each cancer cell line in the pool was deconvolved for each cancer drug.
(§4) DRS for these anchor cell lines are bolded and italicized. Anchors can be identified based on frequency of the cell lines in pools with high DRS versus low DRS. At a high level, an anchor is predicted to be the cell line with the lowest individual DRS. In order to deconvolute individual cell line DRS values from pool DRS values, the anchor can start with an assumed DRS value of zero. Each pool can then be expressed as a polynomial of variables (cell lines in the pool) and constants (DRS value of the pool). The DRS value of each cell line can then be solved for using the anchor value and overlapping polynomial expressions. When multiple values are calculated for the final target solved from the polynomials, then the anchor has a non-zero value that can be determined based on the difference in the calculated value of the final target.
(§5) Each pool represented a co-culture of three cell lines (“Target Compression”).

A further assay deals with SUP-B15. The assay can be described thus: ATP-based luminescence cell viability (CellTiter Glo), drug response score, SUP-B15. Also noted: scale not given here.
Text: as §1, §2, §3, §4, §5

The test system of a further assay is CCRF-CFM. The assay can be described thus: ATP-based luminescence cell viability (CellTiter Glo), drug response score, CCRF-CFM. More on the design: scale not given here. Conditions: Target compression.
Text: as §1, §2, §3, §4, §5

The subject of another assay is MOLT-4. The assay can be described thus: Cell viability (CellTiter Glo), compressed perturbation pools with informed pool design, SUM-based deconvolution, MOLT-4. More on the design: scale not given here. In short, it runs like this:
(§6)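 Cells were exposed to cancer drugs at 1 nM–10 μM, and viability was read by ATP luminescence (CellTiter Glo) to fit dose-response scores. Pools were overlapping and class-informed: same-class drugs went to different cohorts, and PI3K was kept apart from MAPK inhibitors. Per-drug scores were recovered by additive SUM deconvolution, with the lowest-ranked drug anchored at zero where needed.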

The test system of assay [2] is REH. The assay can be described thus: Cell viability (CellTiter Glo), compressed perturbation pools with informed pool design, SUM-based deconvolution, REH. More on the design: scale not given here. In short, it runs like this:
as §6

Setting [3] is: CCRF-HSB2, Sample compression, 5 Pick 3 pools.
[4] abbreviates: CCRF-HSB2, Target compression, 5 Pick 3 pools.
[5] abbreviates: CCRF-HSB2, Target compression, 6 Pick 3 pools.
[6] abbreviates: CCRF-HSB2, Target compression, 7 Pick 3 pools.
Where [7] appears, read: SUP-B15, Sample compression, 5 Pick 3 pools.
Setting [8] is: SUP-B15, Target compression, 5 Pick 3 pools.
[9] abbreviates: SUP-B15, Target compression, 6 Pick 3 pools.
Setting [10] is: SUP-B15, Target compression, 7 Pick 3 pools.

Consider `N#Cc1ccnc(N2C(=O)CC[C@H]2C(=O)N(c2cncc(F)c2)[C@H](C(=O)NC2CC(F)(F)C2)c2ccccc2Cl)c1` [Ivosidenib], for which the figures for the “drug response score (DRS)” value in the assay with JURKAT and in the assay with REH [1] were 0.70 and 0.60, respectively. The DRS from deconvolution in the assay with REH [1] was 0.48; in the assay on CCRF-HSB2 (setting [3]), 1.52; in the assay with CCRF-HSB2 (setting [4]), 1.74; in the assay with CCRF-HSB2 (setting [5]), 1.53; in the assay on CCRF-HSB2 (setting [6]), 1.61; in the assay with SUP-B15 (setting [7]), 0.09. Further, the DRS from deconvolution was determined as 0.00 with SUP-B15 (setting [8]); 0.00 with SUP-B15 (setting [9]); 0.00 in the assay on SUP-B15 (setting [10]); 1.15 with CCRF-CFM (5 Pick 3 pools); 0.89 in the assay with CCRF-CFM (6 Pick 3 pools); 1.01 in the assay with CCRF-CFM (7 Pick 3 pools).
As for `Cc1[nH]c2ccccc2c1CCNCc1ccc(/C=C/C(=O)NO)cc1` [Panobinostat], the results for the “drug response score (DRS)” value in the assay with JURKAT and with REH [1] were 13.20 and 12.60, respectively. Further, the DRS from deconvolution in the assay on REH [1] came out at 12.17; with CCRF-HSB2 (setting [3]) it was 18.63; in the assay on CCRF-HSB2 (setting [4]), 19.75; with CCRF-HSB2 (setting [5]), 17.30; in the assay with CCRF-HSB2 (setting [6]), 17.26; in the assay on SUP-B15 (setting [7]), 25.45. In addition, the DRS from deconvolution in the assay on SUP-B15 (setting [8]) worked out at 21.44; with SUP-B15 (setting [9]) it was 22.36; with SUP-B15 (setting [10]) it was 21.78; in the assay on CCRF-CFM (5 Pick 3 pools) it was 19.98; in the assay on CCRF-CFM (6 Pick 3 pools) it was 16.57; in the assay on CCRF-CFM (7 Pick 3 pools), 18.55.
In the case of `COc1c(OCCCN2CCOCC2)ccc2c1N=C(NC(=O)c1cnc(N)nc1)N1CCN=C21` [Copanlisib], the “drug response score (DRS)” value came to 1.34 with JURKAT and 13.24 in the assay with REH [1]. Besides, the DRS from deconvolution is given as 12.99 in the assay with REH [1]; 7.35 in the assay on CCRF-HSB2 (setting [3]); 7.82 in the assay on CCRF-HSB2 (setting [4]); 7.97 in the assay on CCRF-HSB2 (setting [5]); 7.10 in the assay with CCRF-HSB2 (setting [6]); 1.80 in the assay on SUP-B15 (setting [7]). The DRS from deconvolution in the assay with SUP-B15 (setting [8]) amounted to 1.98; in the assay with SUP-B15 (setting [9]), 3.00; with SUP-B15 (setting [10]), 1.91; in the assay with CCRF-CFM (5 Pick 3 pools), 15.66; in the assay on CCRF-CFM (6 Pick 3 pools), 15.88; in the assay with CCRF-CFM (7 Pick 3 pools), 15.03.
Regarding `C=CC(=O)Nc1cc(Nc2nccc(-c3cn(C)c4ccccc34)n2)c(OC)cc1N(C)CCN(C)C` [Osimertinib], the “DRS, MOLT-4, SUM” value in the assay with MOLT-4 is 0.54. Besides, the “DRS, REH, SUM” value in the assay on REH [2] worked out at 0.00.
With `CC1(C)CCC(CN2CCN(c3ccc(C(=O)NS(=O)(=O)c4ccc(NCC5CCOCC5)c([N+](=O)[O-])c4)c(Oc4cnc5[nH]ccc5c4)c3)CC2)=C(c2ccc(Cl)cc2)C1` [Venetoclax], the “DRS, MOLT-4, SUM” value in the assay with MOLT-4 turned out to be 2.44. For the same compound, the “drug response score (DRS)” value with JURKAT is given as 0.00; in the assay on REH [1], 3.80. Also, the DRS from deconvolution in the assay with REH [1] is listed as 1.15; with CCRF-HSB2 (setting [3]), 0.00; in the assay on CCRF-HSB2 (setting [4]), 0.00; in the assay with CCRF-HSB2 (setting [5]), 0.00; in the assay on CCRF-HSB2 (setting [6]) it was 0.00; in the assay on SUP-B15 (setting [7]), 37.02. For the same compound, the DRS from deconvolution in the assay on SUP-B15 (setting [8]) is given as 37.99; in the assay with SUP-B15 (setting [9]), 37.35; in the assay on SUP-B15 (setting [10]) it was 35.04; with CCRF-CFM (5 Pick 3 pools) it was 0.28; with CCRF-CFM (6 Pick 3 pools), 1.51; with CCRF-CFM (7 Pick 3 pools), 1.07. Besides, the “DRS, REH, SUM” value in the assay with REH [2] was determined as 5.50.
In the case of `COc1cc2ncnc(Nc3ccc(F)c(Cl)c3)c2cc1OCCCN1CCOCC1` [Gefitinib], in the assay on MOLT-4, the “DRS, MOLT-4, SUM” value was determined as 2.22. In the assay on REH [2], the “DRS, REH, SUM” value is given as 1.12.

Source of the values: patent US20260378560A1, “APPROACHES TO DESIGNING AND PERFORMING COMPRESSED BIOLOGICAL EXPERIMENTS AND SYSTEMS FOR IMPLEMENTING THE SAME” (EXVIVO LABS INC., priority 2023, published 2026).
